The values that follow come from PubChem BioAssay (NCI).

Among the test systems are OVCAR-4 ovarian; U251 CNS; COLO 205 colon; SF-268 CNS; K-562 leukemia; SF-295 CNS; HT29 colon; NCI-H522 lung; A498 renal.
Common to all, as to experiment: NCI tumour cell line growth inhibition, 48 h

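48-hour exposure; five concentrations; linearly interpolated endpoints. At the GI50, growth is halved. The concentration for full growth arrest is given as TGI.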 Some results are limits rather than exact numbers.

As for `OCCC#Cc1ccccc1C#Cc1ccccc1`, the GI50 was 24.1 µM in the assay on OVCAR-4 ovarian; 35 µM in the assay on U251 CNS; 19.4 µM in the assay with COLO 205 colon; 16.5 µM with SF-268 CNS; 11 µM with K-562 leukemia; 5.47 µM in the assay on SF-295 CNS. The GI50 in the assay on HT29 colon is 18 µM; in the assay with NCI-H522 lung, 32.1 µM. Moreover, the TGI is 72.4 µM in the assay with OVCAR-4 ovarian; more than 100 µM in the assay on U251 CNS; 38 µM in the assay on COLO 205 colon; 33.9 µM with SF-268 CNS; more than 100 µM with K-562 leukemia; 19.8 µM with SF-295 CNS. Further, the TGI in the assay on HT29 colon and in the assay with NCI-H522 lung was more than 100 µM each time.

In the case of `Cc1ccc(NC(=O)CCC(=O)C2CC(=O)CCC2=O)cc1C` (configuration not stated), the TGI in the assay with OVCAR-4 ovarian, in the assay with U251 CNS, in the assay with COLO 205 colon, in the assay on SF-268 CNS, in the assay with K-562 leukemia and with SF-295 CNS was more than 100 µM each time. This compound had a TGI with HT29 colon of more than 100 µM.

Turning to `CCOC(=O)C12CN(C34CC5CC(CC(C5)C3)C4)CC(C(=O)OCC)(C1=O)C(c1ccccc1)OC2c1ccccc1` (configuration not stated), the TGI in the assay with OVCAR-4 ovarian, in the assay on U251 CNS, in the assay with COLO 205 colon, in the assay on SF-268 CNS, in the assay with K-562 leukemia and with A498 renal was more than 100 µM in each case. Further, the TGI with SF-295 CNS and in the assay on HT29 colon was more than 100 µM throughout.

With `C=C(CNCCc1ccc(O)cc1)[C@@H]1CC[C@]2(CO)CC[C@]3(C)[C@H](CC[C@@H]4[C@@]5(C)CCC(NCCO)C(C)(C)[C@@H]5CC[C@]43C)[C@@H]12` (some centres not stated), the GI50 in the assay on OVCAR-4 ovarian is 1.4 µM; in the assay on U251 CNS, 1.06 µM; with COLO 205 colon, 1.54 µM; in the assay with SF-268 CNS it was 1.57 µM; in the assay on A498 renal, 1.72 µM; in the assay on SF-295 CNS it was 1.72 µM. In addition, the GI50 in the assay on HT29 colon was 0.395 µM; in the assay with NCI-H522 lung it was 1.81 µM. Further, the TGI turned out to be 3.17 µM in the assay with OVCAR-4 ovarian; 2.24 µM in the assay on U251 CNS; 3.13 µM in the assay with COLO 205 colon; 3.23 µM with SF-268 CNS; 3.72 µM with A498 renal; 3.34 µM in the assay on SF-295 CNS. For the same compound, the results for the TGI with HT29 colon and in the assay with NCI-H522 lung were 1.57 µM and 3.56 µM, respectively.

`Clc1ccc(C2=NN(c3ccccc3)C3c4cc(Br)ccc4OCC23)cc1` (configuration not stated): the TGI in the assay with U251 CNS, in the assay on COLO 205 colon, with SF-268 CNS, in the assay with K-562 leukemia, in the assay with A498 renal and with SF-295 CNS was more than 100 µM in each case. In addition, the TGI with HT29 colon and in the assay with NCI-H522 lung was more than 100 µM in each case.

As for `COc1ccc(C(=O)Nc2ccccc2)cc1[N+](=O)[O-]`, the TGI in the assay on U251 CNS, with COLO 205 colon, in the assay on SF-268 CNS, with K-562 leukemia, with A498 renal and with SF-295 CNS was more than 100 µM throughout. In addition, the TGI in the assay on HT29 colon and in the assay with NCI-H522 lung was more than 100 µM in each case.

Regarding `O=C1/C(=C/c2ccccc2Cl)COc2ccccc21`, the TGI with U251 CNS was found to be 26.9 µM; in the assay with COLO 205 colon it was 40.1 µM; in the assay on SF-268 CNS, 34.1 µM; in the assay on K-562 leukemia, 29.7 µM; with A498 renal, 32.4 µM; with SF-295 CNS, 37.6 µM. The TGI with HT29 colon was 45.1 µM; with NCI-H522 lung it was 30.5 µM.

Consider `COc1ccc(Br)c(CCCCC(=O)O)c1`, for which the TGI in the assay on OVCAR-4 ovarian, in the assay on U251 CNS, in the assay with COLO 205 colon, with K-562 leukemia, in the assay with A498 renal and in the assay on SF-295 CNS was more than 100 µM each time. This compound yielded a TGI with HT29 colon of more than 100 µM.

Consider `COC(=O)[C@@]12C3=NO[C@]1(C(=O)OC)C(O[Si](C)(C)C(C)(C)C)C1OC(C)(C)OC1[C@@H]2[C@@H](OCc1ccccc1)CC3` (some centres not stated), for which the TGI in the assay with OVCAR-4 ovarian, in the assay with U251 CNS, with COLO 205 colon, in the assay on K-562 leukemia, with A498 renal and in the assay on SF-295 CNS was more than 100 µM throughout. In the assay on HT29 colon, this compound registered a TGI of more than 100 µM.

Turning to `COC(=O)CC(CC(=O)C(=O)OC)C(=O)OC` (configuration not stated), the TGI with U251 CNS, with COLO 205 colon, with K-562 leukemia, in the assay on A498 renal, in the assay with SF-295 CNS and with HT29 colon was more than 100 µM in each case.

For the compound `c1ccc(CNc2nc(Nc3ccc(-c4nc5ccccc5[nH]4)cc3)c3cn[nH]c3n2)cc1`, the GI50 in the assay with OVCAR-4 ovarian was 2.28 µM; with U251 CNS, 2.27 µM; in the assay with COLO 205 colon it was 1.78 µM; in the assay on SF-268 CNS it was 2.37 µM; with A498 renal, 2.93 µM; in the assay on SF-295 CNS it was 1.7 µM. Besides, the values for the GI50 in the assay with HT29 colon and in the assay on NCI-H522 lung were 2.09 µM and 2.24 µM, respectively. Further, the TGI with OVCAR-4 ovarian was 7.14 µM; with U251 CNS it was 5.85 µM; with COLO 205 colon, 3.72 µM; in the assay on SF-268 CNS, 7.1 µM; in the assay on A498 renal, 8.22 µM; with SF-295 CNS, 3.84 µM. For the same compound, the TGI in the assay on HT29 colon was determined as 5.57 µM; with NCI-H522 lung, 5.68 µM.
